Test results published in publication PMC7561186, “Rational design of balanced dual-targeting antibiotics with limited resistance” (PLoS Biology, 2020).
Converted amounts (≈) assume the structure as drawn. Like-named read-outs stand apart in the source and are kept apart here.

Tested on: S. aureus clinical isolates
Assay: microbe, parasite or virus in culture
Format: cell-based
Details: Staphylococcus aureus, read-out: MIC

Work on `C[C@H]1COc2c(N3CCN(C)CC3)c(F)cc3c(=O)c(C(=O)O)cn1c23` [Levofloxacin] yielded an MIC (MRSA, S. aureus IHMA 1621638, MRSA / VSSA) of 0.25 µg/mL (≈ 0.692 µM), an MIC (MRSA, S. aureus IHMA 1622252, MRSA / VSSA) of 16 µg/mL (≈ 44.3 µM) and an MIC (MRSA, S. aureus IHMA 1622527, MRSA / VSSA) of 0.25 µg/mL (≈ 0.692 µM). It also gave an MIC (MRSA, S. aureus IHMA 1666371, MRSA / VSSA) greater than 64 µg/mL, an MIC (MRSA, S. aureus IHMA 1695391, MRSA / VSSA) greater than 64 µg/mL and an MIC (MRSA, S. aureus IHMA 1703428, MRSA / VSSA) of 0.25 µg/mL (≈ 0.692 µM). The MIC (MRSA, S. aureus IHMA 1720350, MRSA / VSSA) was 0.25 µg/mL (≈ 0.692 µM), the MIC (MRSA, S. aureus IHMA 1732989, MRSA / VSSA) was 64 µg/mL (≈ 177 µM) and the MIC (MRSA, S. aureus IHMA 1742231, MRSA / VSSA) was greater than 64 µg/mL. The MIC (MRSA, S. aureus IHMA 1766357, MRSA / VSSA) was 16 µg/mL (≈ 44.3 µM), the MIC (MSSA / NRS 12 / VISA, S. aureus IHMA 1308244, NRS12, MSSA / VISA) was 0.5 µg/mL (≈ 1.38 µM) and the MIC (MSSA / NRS 13 / VISA, S. aureus IHMA 1308245, NRS13, MSSA / VISA) was 0.5 µg/mL (≈ 1.38 µM). For the same molecule, the MIC (MSSA / NRS 14 / VISA, S. aureus IHMA 1308246, NRS14, MSSA / VISA) was 0.5 µg/mL (≈ 1.38 µM), the MIC (MSSA / NRS 17 / VISA, S. aureus IHMA 1308247, NRS17, MSSA / VISA) was 16 µg/mL (≈ 44.3 µM) and the MIC (MSSA / NRS 28 / VISA, S. aureus IHMA 1308249, NRS28, MSSA / VISA) was 32 µg/mL (≈ 88.6 µM). The MIC (MSSA / NRS 52, S. aureus IHMA 1308252, NRS52, MSSA / VSSA* (*Expected VAN intermediate, confirmed VAN susceptible twice), test date 2018-11-07) was 0.25 µg/mL (≈ 0.692 µM), the MIC (MSSA / USA100 / VRSA, S. aureus IHMA 672236, VRS6, MSSA / VRSA, USA100) was 32 µg/mL (≈ 88.6 µM) and the MIC (MSSA, S. aureus IHMA 1563826, MSSA / VSSA) was 0.25 µg/mL (≈ 0.692 µM). For the same molecule, the MIC (MSSA, S. aureus IHMA 1565492, MSSA / VSSA) was 0.25 µg/mL (≈ 0.692 µM), the MIC (MSSA, S. aureus IHMA 1569499, MSSA / VSSA) was 0.25 µg/mL (≈ 0.692 µM) and the MIC (MSSA, S. aureus IHMA 1569754, MSSA / VSSA) was 16 µg/mL (≈ 44.3 µM). For the same molecule, the MIC (MSSA, S. aureus IHMA 1574202, MSSA / VSSA) was 0.25 µg/mL (≈ 0.692 µM), the MIC (MSSA, S. aureus IHMA 1575652, MSSA / VSSA) was 0.25 µg/mL (≈ 0.692 µM) and the MIC (MSSA, S. aureus IHMA 1575779, MSSA / VSSA) was 0.25 µg/mL (≈ 0.692 µM). It also gave an MIC (MSSA, S. aureus IHMA 1576329, MSSA / VSSA) of 0.25 µg/mL (≈ 0.692 µM), an MIC (MSSA, S. aureus IHMA 1577800, MSSA / VSSA) of 0.25 µg/mL (≈ 0.692 µM) and an MIC (MSSA, S. aureus IHMA 1578560, MSSA / VSSA) of 0.25 µg/mL (≈ 0.692 µM). For the same molecule, the MIC (MSSA, S. aureus IHMA 1580233, MSSA / VSSA) was 0.25 µg/mL (≈ 0.692 µM), the MIC (MSSA, S. aureus IHMA 1580925, MSSA / VSSA) was 0.25 µg/mL (≈ 0.692 µM) and the MIC (MSSA, S. aureus IHMA 1580955, MSSA / VSSA) was 0.25 µg/mL (≈ 0.692 µM). It also gave an MIC (MSSA, S. aureus IHMA 1582586, MSSA / VSSA) of 0.5 µg/mL (≈ 1.38 µM), an MIC (MSSA, S. aureus IHMA 1582691, MSSA / VSSA) of 0.25 µg/mL (≈ 0.692 µM) and an MIC (MSSA, S. aureus IHMA 1584230, MSSA / VSSA) of 0.25 µg/mL (≈ 0.692 µM). For the same molecule, the MIC (MSSA, S. aureus IHMA 1587279, MSSA / VSSA) was 0.25 µg/mL (≈ 0.692 µM), the MIC (MSSA, S. aureus IHMA 1591459, MSSA / VSSA) was 16 µg/mL (≈ 44.3 µM) and the MIC (MSSA, S. aureus IHMA 1592749, MSSA / VSSA) was 0.25 µg/mL (≈ 0.692 µM). For the same molecule, the MIC (MSSA, S. aureus IHMA 1592751, MSSA / VSSA) was 0.25 µg/mL (≈ 0.692 µM), the MIC (MSSA, S. aureus IHMA 1594297, MSSA / VSSA) was 0.25 µg/mL (≈ 0.692 µM) and the MIC (MSSA, S. aureus IHMA 1597120, MSSA / VSSA) was 0.25 µg/mL (≈ 0.692 µM). For the same molecule, the MIC (MSSA, S. aureus IHMA 1597125, MSSA / VSSA) was 0.25 µg/mL (≈ 0.692 µM), the MIC (MSSA, S. aureus IHMA 1599157, MSSA / VSSA) was 0.25 µg/mL (≈ 0.692 µM) and the MIC (MSSA, S. aureus IHMA 1599506, MSSA / VSSA) was 0.25 µg/mL (≈ 0.692 µM). The MIC (MSSA, S. aureus IHMA 1602078, MSSA / VSSA) was 32 µg/mL (≈ 88.6 µM), the MIC (MSSA, S. aureus IHMA 1604586, MSSA / VSSA) was 0.25 µg/mL (≈ 0.692 µM) and the MIC (MSSA, S. aureus IHMA 1604609, MSSA / VSSA) was 0.25 µg/mL (≈ 0.692 µM). It also gave an MIC (MSSA, S. aureus IHMA 1609919, MSSA / VSSA) of 0.25 µg/mL (≈ 0.692 µM), an MIC (MSSA, S. aureus IHMA 1622864, MSSA / VSSA) of 0.25 µg/mL (≈ 0.692 µM) and an MIC (MSSA, S. aureus IHMA 1626392, MSSA / VSSA) of 0.25 µg/mL (≈ 0.692 µM). It also gave an MIC (MSSA, S. aureus IHMA 1713793, MSSA / VSSA) of 0.25 µg/mL (≈ 0.692 µM).
